Values quoted from earlier work as cited in patent US20240317750A1, “An Efficient Process for the Synthesis of Methylliberine and Polymorphs Thereof” (Fertis India Pvt. Ltd., priority 2021, published 2024).

Settings: background statement, available toxicological information; no test described

SMILES: COc1nc2c(c(=O)n1C)n(C)c(=O)n2C [methylliberine, 2-Methoxy-1,7,9-trimethyl-7,9-dihydro-1H-purine-6,8-dione]
- genotoxicity: does not cause any genotoxicity
